Five compounds from US6900331B2, “Derivatives of epothilone B and D and synthesis thereof” (University of Notre Dame, priority 2002, dated 2005) can be followed below.

Some results are limits rather than exact numbers.

In experiment [1] the test system is Human breast carcinoma cell line MCF-7. Put plainly: Cytotoxicity assay (SRB), MCF-7. The format is cell-based. The conditions noted are these: 3 days exposure, SRB staining. The procedure:
(§1) Cell lines and culture conditions: Human breast carcinoma cell line MCF-7, multi-drug resistant breast carcinoma cell line NCI/ADR, non-small cell lung carcinoma cell line NCI-H460 and glioma cell line SF-268 were obtained from the National Cancer Institute. All cell lines were maintained in RPMI-1640 medium (Gibco/BRL, Rockville, Md.) supplemented with 2 mM L-glutamine, 25 mM HEPES and 10% FBS (Hyclone, Logan, Utah). Cells were maintained in a humidified incubator at 37° C. in 5% CO2.
(§2) Cytoloxicity assays: Tumor cells were seeded in 100 μl at 5000 (MCF-7), 7500 (NCI/ADR), 5000 (NCI-H460) and 7500 (SF-268) cells per well in 96-well plates. Cells were allowed to adhere for 24 hours. Each compound ranging from 0.001 to 1000 nM in 100 μl was added to cells in triplicate wells. After 3 days, cells were fixed at 4° C. for 1 hour with 10% trichloroacetic acid and then stained with 0.2% sulforhodamine B (SRB)/1% acetic acid for 20 minutes at room temperature. The unbounded dye was rinsed away with 1% acetic acid, and the bounded SRB was then extracted with 200 μl of 10 mM Tris base. The absorbance was measured at 515 nm using a 96-well microtiter plate reader (Spectra Max 250, Molecular Devices). The IC50 values were calculated using a KaleidaGraph program. The experiments were performed twice.

The subject of experiment [2] is multi-drug resistant breast carcinoma cell line NCI/ADR. The experiment can be described thus: Cytotoxicity assay (SRB), NCI/ADR. The conditions noted are these: 3 days exposure, SRB staining. The format is cell-based, Human. The procedure: as §1, §2
(In general: In SRB staining, fixed cells bind dye roughly in proportion to their protein.)

The subject of experiment [3] is non-small cell lung carcinoma cell line NCI-H460. Put plainly: Cytotoxicity assay (SRB), NCI-H460. The conditions noted are these: 3 days exposure, SRB staining. The format is cell-based, Human. The procedure:
as §1, §2

Another experiment has as its system glioma cell line SF-268. Put plainly: Cytotoxicity assay (SRB), SF-268. The format is cell-based, Human. The conditions noted are these: 3 days exposure, SRB staining. The procedure: as §1, §2
The test system of the next experiment is tubulin. The experiment can be described thus: Preliminary tubulin polymerization activity. The format is biochemical. The conditions noted are these: preliminary biological investigations.
For another experiment, the system named is tumor cell. Put plainly: Tumor cell growth assays. The format is cell-based. The conditions noted are these: fold as active as epothilone B.

Consider `C/C1=C/[C@@H](C)[C@@H](/C(C)=C/c2csc(C)n2)OC(=O)C[C@H](O)C(C)(C)C(=O)[C@H](C)[C@@H](O)[C@@H](C)CCC1` [Compound 13, (R)-C14-methyl epothilone D], for which the IC50 (in experiment [1]; in experiment [2]; in experiment [3]; in the experiment with glioma cell line SF-268) was over 1000 nM in each case. Moreover, the tubulin polymerization activity entry in the experiment with tubulin is “relatively weak activity”.
Take `C/C1=C/C[C@@H](/C(C)=C/c2csc(C)n2)OC(=O)C[C@H](O)C(C)(C)C(=O)[C@H](C)[C@@H](O)[C@@H](C)CCC1` [Epothilone D, reference compound]: the IC50 (in general, the concentration that gives 50% inhibition) in experiment [1] is 5 nM; in experiment [2], 26 nM; in experiment [3], 20 nM; with glioma cell line SF-268, 7 nM.
For `C/C(=C\c1csc(C)n1)[C@H]1OC(=O)C[C@H](O)C(C)(C)C(=O)[C@H](C)[C@@H](O)[C@@H](C)CCC[C@@]2(C)O[C@H]2[C@H]1C` [Compound 4, (S)-C14-methyl epothilone B], in that order: over 1000 nM, over 1000 nM, over 1000 nM and over 1000 nM.
For `C/C(=C\c1csc(C)n1)[C@H]1OC(=O)C[C@H](O)C(C)(C)C(=O)[C@H](C)[C@@H](O)[C@@H](C)CCC[C@@]2(C)O[C@H]2[C@@H]1C` [Compound 3, (R)-C14-methyl epothilone B], the concentration for half-maximal inhibition (IC50) in experiment [1] turned out to be 3 nM; in experiment [2] it was 23 nM; in experiment [3], 3 nM; with glioma cell line SF-268, 3 nM. For the same compound, the tubulin polymerization activity entry with tubulin was “significant”. The “activity relative to epothilone B itself” value in the experiment with tumor cell is over 2 ×.
As to `C/C1=C/[C@H](C)[C@@H](/C(C)=C/c2csc(C)n2)OC(=O)C[C@H](O)C(C)(C)C(=O)[C@H](C)[C@@H](O)[C@@H](C)CCC1` [Compound 12, (S)-C14-methyl epothilone D], the half-inhibitory concentration (IC50) was determined as 35 nM in experiment [1] (Homo sapiens, MCF7, 72 h); 238 nM in experiment [2] (Homo sapiens, NCI/ADR-RES, 72 h); 42 nM in experiment [3] (Homo sapiens, NCI-H460, 72 h); 42 nM in the experiment with glioma cell line SF-268 (Homo sapiens, SF-268, 72 h). In the experiment on tubulin, the tubulin polymerization activity result is recorded as “significant”.
